Measured values published in patent publication US12448399B2, “Cereblon-based KRAS degrading PROTACs and uses related thereto” (Arvinas Operations, Inc., priority 2023, dated 2025).

Target: T1, KRas-G12D (Homo sapiens, UniProt P01116, G12D)
T1 construct: insert the HiBiT tag onto the N-terminus of one or more of the endogenous KRas alleles; host or cells: AsPC-1 HiBiT-KRasG12D knock-in clone (one tagged allele, two untagged KRasG12D alleles)
Assay: HiBiT Degradation Assay (G12D), AsPC-1 HiBiT-KRasG12D cells, 24 hr
Assay type: cell-based
Settings: for Dmax: ASPC1, AsPC-1 cells, maximum degradation observed; for DC50: AsPC-1 cells
Summary of the method: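 Degradation was read after 24 hr compound exposure (0.5% DMSO, 37° C) by Nano-Glo HiBiT lytic luminescence in AsPC-1 cells carrying a HiBiT tag on one of three KRasG12D alleles. Signal relative to DMSO gave DC50 and Dmax by 4-parameter fit; alamar blue fluorescence monitored cytotoxicity.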

T1 sequence (P01116 1-188 isoform P01116-2 G12D): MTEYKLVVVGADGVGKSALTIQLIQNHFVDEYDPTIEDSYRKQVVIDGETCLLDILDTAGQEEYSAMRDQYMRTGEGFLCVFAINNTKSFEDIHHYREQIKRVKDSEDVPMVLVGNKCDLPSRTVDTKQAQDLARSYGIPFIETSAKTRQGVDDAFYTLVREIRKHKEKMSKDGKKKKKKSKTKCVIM

Row | SMILES | Dmax | DC50
1 | C#Cc1c(F)ccc2cc(O)cc(-c3ncc4c(N5CC6CCC(C5)N6)nc(OCCN5CCC(CC6CCN(CC7CCN(c8ccc9c(c8F)CN([C@@H]8CCC(=O)NC8=O)C9=O)CC7)CC6)CC5)nc4c3F)c12 [Compound 163, (3R)-3-{5-[4-({4-[(1-{2-[(4-{3,8-diazabicyclo[3.2.1]octan-3-yl}-7-(8-ethynyl-7-fluoro-3-hydroxynaphthalen-1-yl)-8-fluoropyrido[4,3-d]pyrimidin-2-yl)oxy]ethyl}piperidin-4-yl)methyl]piperidin-1-yl}methyl)piperidin-1-yl]-4-fluoro-1-oxo-2,3-dihydro-1H-isoindol-2-yl}piperidine-2,6-dione] | > 70% | < 5.1 µM
2 | C#Cc1c(F)ccc2cc(O)cc(-c3ncc4c(N5CC6CCC(C5)N6)nc(OC[C@@H]5C[C@@H](OC6CCN(CC7CN(c8ccc9c(c8)CN(C8CCC(=O)NC8=O)C9=O)C7)CC6)CN5C)nc4c3F)c12 (stereo partly drawn) [Compound 164, 3-(5-{3-[(4-{[(3R,5S)-5-{[(4-{3,8-diazabicyclo[3.2.1]octan-3-yl}-7-(8-ethynyl-7-fluoro-3-hydroxynaphthalen-1-yl)-8-fluoropyrido[4,3-d]pyrimidin-2-yl)oxy]methyl}-1-methylpyrrolidin-3-yl]oxy}piperidin-1-yl)methyl]azetidin-1-yl}-1-oxo-2,3-dihydro-1H-isoindol-2-yl)piperidine-2,6-dione] | > 70% | < 5.1 µM
3 | C#Cc1c(F)ccc2cc(O)cc(-c3ncc4c(N5CC6CCC(C5)N6)nc(OC[C@@H]5C[C@@H](OC6CCN(CC7CCN(c8ccc9c(c8)CN(C8CCC(=O)NC8=O)C9=O)CC7)CC6)CN5CC)nc4c3F)c12 (stereo partly drawn) [Compound 165, 3-(5-{4-[(4-{[(3R,5S)-5-{[(4-{3,8-diazabicyclo[3.2.1]octan-3-yl}-7-(8-ethynyl-7-fluoro-3-hydroxynaphthalen-1-yl)-8-fluoropyrido[4,3-d]pyrimidin-2-yl)oxy]methyl}-1-ethylpyrrolidin-3-yl]oxy}piperidin-1-yl)methyl]piperidin-1-yl}-1-oxo-2,3-dihydro-1H-isoindol-2-yl)piperidine-2,6-dione] | > 70% | < 5.1 µM
4 | C#Cc1c(F)ccc2cc(O)cc(-c3ncc4c(N5CC6CCC(C5)N6)nc(OCCN5CCC(CN6CCC(CC7CCN(c8ccc9c(c8F)n(C)c(=O)n9C8CCC(=O)NC8=O)CC7)CC6)CC5)nc4c3F)c12 (stereo not drawn) [Compound 166, 3-{5-[4-({1-[(1-{2-[(4-{3,8-diazabicyclo[3.2.1]octan-3-yl}-7-(8-ethynyl-7-fluoro-3-hydroxynaphthalen-1-yl)-8-fluoropyrido[4,3-d]pyrimidin-2-yl)oxy]ethyl}piperidin-4-yl)methyl]piperidin-4-yl}methyl)piperidin-1-yl]-4-fluoro-3-methyl-2-oxo-2,3-dihydro-1H-1,3-benzodiazol-1-yl}piperidine-2,6-dione] | > 70% | < 5.1 µM
5 | C#Cc1c(F)ccc2cc(O)cc(-c3ncc4c(N5CC6CCC(C5)N6)nc(OCCN5CCC(CN6CCC(CC7CCN(c8ccc9c(c8F)n(C(C)C)c(=O)n9C8CCC(=O)NC8=O)CC7)CC6)CC5)nc4c3F)c12 (stereo not drawn) [Compound 167, 3-{5-[4-({1-[(1-{2-[(4-{3,8-diazabicyclo[3.2.1]octan-3-yl}-7-(8-ethynyl-7-fluoro-3-hydroxynaphthalen-1-yl)-8-fluoropyrido[4,3-d]pyrimidin-2-yl)oxy]ethyl}piperidin-4-yl)methyl]piperidin-4-yl}methyl)piperidin-1-yl]-4-fluoro-2-oxo-3-(propan-2-yl)-2,3-dihydro-1H-1,3-benzodiazol-1-yl}piperidine-2,6-dione] |  | < 5.1 µM
6 | C#Cc1c(F)ccc2cc(O)cc(-c3ncc4c(N5CC6CCC(C5)N6)nc(OCCN5CCC(CN6CCN(CC7CCN(c8ccc9c(c8F)CN(C8CCC(=O)NC8=O)C9=O)CC7)CC6)CC5(C)C)nc4c3F)c12 (stereo not drawn) [Compound 168, 3-{5-[4-({4-[(1-{2-[(4-{3,8-diazabicyclo[3.2.1]octan-3-yl}-7-(8-ethynyl-7-fluoro-3-hydroxynaphthalen-1-yl)-8-fluoropyrido[4,3-d]pyrimidin-2-yl)oxy]ethyl}-2,2-dimethylpiperidin-4-yl)methyl]piperazin-1-yl}methyl)piperidin-1-yl]-4-fluoro-1-oxo-2,3-dihydro-1H-isoindol-2-yl}piperidine-2,6-dione] | > 70% | < 5.1 µM
7 | C#Cc1c(F)ccc2cc(O)cc(-c3ncc4c(N5CC6CCC(C5)N6)nc(OCCN5CCC(CN6CCN(CC7CCN(c8ccc9c(c8F)CN(C8CCC(=O)NC8=O)C9=O)CC7)C(C)(C)C6)CC5)nc4c3F)c12 (stereo not drawn) [Compound 169, 3-{5-[4-({4-[(1-{2-[(4-{3,8-diazabicyclo[3.2.1]octan-3-yl}-7-(8-ethynyl-7-fluoro-3-hydroxynaphthalen-1-yl)-8-fluoropyrido[4,3-d]pyrimidin-2-yl)oxy]ethyl}piperidin-4-yl)methyl]-2,2-dimethylpiperazin-1-yl}methyl)piperidin-1-yl]-4-fluoro-1-oxo-2,3-dihydro-1H-isoindol-2-yl}piperidine-2,6-dione] | > 70% | < 5.1 µM
8 | C#Cc1c(F)ccc2cc(O)cc(-c3ncc4c(N5CC6CCC(C5)N6)nc(OCCN5CCC(CN6CCC(CC7CCN(c8cc(C)c9c(c8F)CN(C8CCC(=O)NC8=O)C9=O)CC7)CC6)CC5)nc4c3F)c12 (stereo not drawn) [Compound 170, 3-{5-[4-({1-[(1-{2-[(4-{3,8-diazabicyclo[3.2.1]octan-3-yl}-7-(8-ethynyl-7-fluoro-3-hydroxynaphthalen-1-yl)-8-fluoropyrido[4,3-d]pyrimidin-2-yl)oxy]ethyl}piperidin-4-yl)methyl]piperidin-4-yl}methyl)piperidin-1-yl]-4-fluoro-7-methyl-1-oxo-2,3-dihydro-1H-isoindol-2-yl}piperidine-2,6-dione] | > 70% | < 5.1 µM
9 | CCc1c(F)ccc2cc(O)cc(-c3ncc4c(N5CC6CCC(C5)N6)nc(OCCN5CCC6(CC5)CCN(CC5CCN(c7ccc8c(c7)n(C)c(=O)n8C7CCC(=O)NC7=O)CC5)CC6)nc4c3F)c12 (stereo not drawn) [Compound 171, 3-(5-{4-[(9-{2-[(4-{3,8-diazabicyclo[3.2.1]octan-3-yl}-7-(8-ethyl-7-fluoro-3-hydroxynaphthalen-1-yl)-8-fluoropyrido[4,3-d]pyrimidin-2-yl)oxy]ethyl}-3,9-diazaspiro[5.5]undecan-3-yl)methyl]piperidin-1-yl}-3-methyl-2-oxo-2,3-dihydro-1H-1,3-benzodiazol-1-yl)piperidine-2,6-dione] | > 70% | < 5.1 µM
10 | CCc1c(F)ccc2cc(O)cc(-c3ncc4c(N5CC6CCC(C5)N6)nc(OCCN5CCC(CC6CCN(CC7CCN(c8cccc9c8n(C)c(=O)n9C8CCC(=O)NC8=O)CC7)CC6)CC5)nc4c3F)c12 (stereo not drawn) [Compound 172, 3-{4-[4-({4-[(1-{2-[(4-{3,8-diazabicyclo[3.2.1]octan-3-yl}-7-(8-ethyl-7-fluoro-3-hydroxynaphthalen-1-yl)-8-fluoropyrido[4,3-d]pyrimidin-2-yl)oxy]ethyl}piperidin-4-yl)methyl]piperidin-1-yl}methyl)piperidin-1-yl]-3-methyl-2-oxo-2,3-dihydro-1H-1,3-benzodiazol-1-yl}piperidine-2,6-dione] | > 70% | < 5.1 µM
11 | C#Cc1c(F)ccc2cc(O)cc(-c3ncc4c(N5CC6CCC(C5)N6)nc(OCCN5CCN(CC6CCN(CC7CCN(c8ccc9c(c8)n(C)c(=O)n9C8CCC(=O)NC8=O)CC7)CC6)CC5)nc4c3F)c12 (stereo not drawn) [Compound 173, 3-{5-[4-({4-[(4-{2-[(4-{3,8-diazabicyclo[3.2.1]octan-3-yl}-7-(8-ethynyl-7-fluoro-3-hydroxynaphthalen-1-yl)-8-fluoropyrido[4,3-d]pyrimidin-2-yl)oxy]ethyl}piperazin-1-yl)methyl]piperidin-1-yl}methyl)piperidin-1-yl]-3-methyl-2-oxo-2,3-dihydro-1H-1,3-benzodiazol-1-yl}piperidine-2,6-dione] | > 70% | < 5.1 µM
12 | C#Cc1c(F)ccc2cc(O)cc(-c3ncc4c(N5CC6CCC(C5)N6)nc(OCCN5CCN(CC6CCN(CC7CCN(c8ccc9c(c8F)CN(C8CCC(=O)NC8=O)C9=O)CC7)CC6)CC5(C)C)nc4c3F)c12 (stereo not drawn) [Compound 174, 3-{5-[4-({4-[(4-{2-[(4-{3,8-diazabicyclo[3.2.1]octan-3-yl}-7-(8-ethynyl-7-fluoro-3-hydroxynaphthalen-1-yl)-8-fluoropyrido[4,3-d]pyrimidin-2-yl)oxy]ethyl}-3,3-dimethylpiperazin-1-yl)methyl]piperidin-1-yl}methyl)piperidin-1-yl]-4-fluoro-1-oxo-2,3-dihydro-1H-isoindol-2-yl}piperidine-2,6-dione] | > 70% | < 5.1 µM
13 | C#Cc1c(F)ccc2cc(O)cc(-c3ncc4c(N5CC6CCC(C5)N6)nc(OCCN5CCC(CC6CCN(c7ccc8c(c7)n(C(C)C)c(=O)n8C7CCC(=O)NC7=O)CC6)CC5)nc4c3F)c12 (stereo not drawn) [Compound 175, 3-(5-{4-[(1-{2-[(4-{3,8-diazabicyclo[3.2.1]octan-3-yl}-7-(8-ethynyl-7-fluoro-3-hydroxynaphthalen-1-yl)-8-fluoropyrido[4,3-d]pyrimidin-2-yl)oxy]ethyl}piperidin-4-yl)methyl]piperidin-1-yl}-2-oxo-3-(propan-2-yl)-2,3-dihydro-1H-1,3-benzodiazol-1-yl)piperidine-2,6-dione] | > 70% | < 5.1 µM
14 | C#Cc1c(F)ccc2cc(O)cc(-c3ncc4c(N5CC6CCC(C5)N6)nc(OC[C@@H]5CC[C@@H](CN6CCN(c7ccc8c(c7)n(C(C)C)c(=O)n8C7CCC(=O)NC7=O)CC6)N5C)nc4c3F)c12 (stereo partly drawn) [Compound 176, 3-[5-(4-{[(2S,5S)-5-{[(4-{3,8-diazabicyclo[3.2.1]octan-3-yl}-7-(8-ethynyl-7-fluoro-3-hydroxynaphthalen-1-yl)-8-fluoropyrido[4,3-d]pyrimidin-2-yl)oxy]methyl}-1-methylpyrrolidin-2-yl]methyl}piperazin-1-yl)-2-oxo-3-(propan-2-yl)-2,3-dihydro-1H-1,3-benzodiazol-1-yl]piperidine-2,6-dione] | > 70% | < 5.1 µM
